Experimental data published in patent US12691112B2, “FGFR tyrosine kinase inhibitors for the treatment of urothelial carcinoma” (Janssen Pharmaceutica NV, priority 2019, dated 2026).
Where two headings read alike, the source gives them in different places.

System: subjects with metastatic or surgically unresectable urothelial cancer
Conditions: all-causality
Procedure: Study treatment was administered on 28-day cycles. […] Patients were randomized 1:1 to 28-day cycles to the following 2 regimens until a regimen was selected for further study: Regimen 1 (10 mg once daily intermittent (7 days on/7 days); Regimen 2 (6 mg once daily continuous). Randomization was stratified according to performance status (0 to 1 vs. 2), hemoglobin value (<10 vs. ≥10 g per dl), FGFR alteration type (mutation vs. fusion), prior treatment status (chemotherapy-resistant vs. chemotherapy naïve), and disease distribution (presence or absence of visceral [liver, lung, bone]metastases). Starting dose selection was based on phase 1 efficacy and tolerability.
Based on interim analysis and pharmacokinetic-pharmacodynamic modeling of serum phosphate levels, starting dose was increased to 8 mg per day continuous (Regimen 3). Thus, after interim analysis, this became a single-arm study. […] Treatment continued until disease progression or unacceptable adverse event(s) per investigator.
Safety was evaluated based on clinical laboratory tests, physical exams, electrocardiograms, and ophthalmology examinations. Adverse events and abnormalities were assessed by investigator and graded per NCI CTCAE v.4.0
Prophylactic measures were taken to minimize risk of common adverse events related to FGFR inhibition. To reduce risk of hyperphosphatemia, a low-phosphate diet was recommended for all patients (600 to 800 mg of dietary phosphate intake per day). To reduce the risk of skin effects, the application of alcohol-free emollient moisturizing cream and avoidance of unnecessary exposure to sunlight, soap, perfumed products, and hot baths was recommended. Patients were asked to keep their fingers and toes clean and nails trimmed to reduce risk of nail effects.
Additional ophthalmology examinations were performed if clinically indicated.

SMILES: COc1cc(OC)cc(N(CCNC(C)C)c2ccc3ncc(-c4cnn(C)c4)nc3c2)c1 [erdafitinib, N-(3,5-dimethoxy-phenyl)-N′-(1-methylethyl)-N-[3-(1-methyl-1H-pyrazol-4-yl)quinoxalin-6-yl]ethane-1,2-diamine]
- Conjunctivitis, grade ≥ 3 (6 mg continuous, n = 78): 1 no.
- Constipation, any grade (6 mg continuous, n = 78): 20 no.
- Constipation, grade 1 (6 mg continuous, n = 78): 10 no.
- Constipation, grade 2 (6 mg continuous, n = 78): 10 no.
- Constipation, grade ≥ 3 (6 mg continuous, n = 78): 0 no.
- Decreased appetite, any grade (6 mg continuous, n = 78): 29 no.
- Decreased appetite, grade 1 (6 mg continuous, n = 78): 12 no.
- Decreased appetite, grade 2 (6 mg continuous, n = 78): 13 no.
- Decreased appetite, grade ≥ 3 (6 mg continuous, n = 78): 4 no.
- Diarrhea, any grade (6 mg continuous, n = 78): 39 no.
- Diarrhea, grade 1 (6 mg continuous, n = 78): 24 no.
- Diarrhea, grade 2 (6 mg continuous, n = 78): 15 no.
- Diarrhea, grade ≥ 3 (6 mg continuous, n = 78): 0 no.
- Dry eye, any grade (6 mg continuous, n = 78): 6 no.
- Dry eye, grade 1 (6 mg continuous, n = 78): 3 no.
- Dry eye, grade 2 (6 mg continuous, n = 78): 2 no.
- Dry eye, grade ≥ 3 (6 mg continuous, n = 78): 1 no.
- Dry mouth, any grade (6 mg continuous, n = 78): 31 no.
- Dry mouth, grade 1 (6 mg continuous, n = 78): 23 no.
- Dry mouth, grade 2 (6 mg continuous, n = 78): 6 no.
- Dry mouth, grade ≥ 3 (6 mg continuous, n = 78): 2 no.
- Dry skin, any grade (6 mg continuous, n = 78): 18 no.
- Dry skin, grade 1 (6 mg continuous, n = 78): 10 no.
- Dry skin, grade 2 (6 mg continuous, n = 78): 8 no.
- Dry skin, grade ≥ 3 (6 mg continuous, n = 78): 0 no.
- Dysgeusia, any grade (6 mg continuous, n = 78): 10 no.
- Dysgeusia, grade 1 (6 mg continuous, n = 78): 6 no.
- Dysgeusia, grade 2 (6 mg continuous, n = 78): 4 no.
- Dysgeusia, grade ≥ 3 (6 mg continuous, n = 78): 0 no.
- Dyspepsia, any grade (6 mg continuous, n = 78): 9 no.
- Dyspepsia, grade 1 (6 mg continuous, n = 78): 6 no.
- Dyspepsia, grade 2 (6 mg continuous, n = 78): 3 no.
- Dyspepsia, grade ≥ 3 (6 mg continuous, n = 78): 0 no.
- Dyspnea, any grade (6 mg continuous, n = 78): 6 no.
- Dyspnea, grade 1 (6 mg continuous, n = 78): 1 no.
- Dyspnea, grade 2 (6 mg continuous, n = 78): 3 no.
- Dyspnea, grade ≥ 3 (6 mg continuous, n = 78): 2 no.
- Fatigue, any grade (6 mg continuous, n = 78): 20 no.
- Fatigue, grade 1 (6 mg continuous, n = 78): 8 no.
- Fatigue, grade 2 (6 mg continuous, n = 78): 8 no.
- Fatigue, grade ≥ 3 (6 mg continuous, n = 78): 4 no.
- Hand-foot syndrome, any grade (6 mg continuous, n = 78): 13 no.
- Hand-foot syndrome, grade 1 (6 mg continuous, n = 78): 4 no.
- Hand-foot syndrome, grade 2 (6 mg continuous, n = 78): 9 no.
- Hand-foot syndrome, grade ≥ 3 (6 mg continuous, n = 78): 0 no.
- Hematuria, any grade (6 mg continuous, n = 78): 6 no.
- Hematuria, grade 1 (6 mg continuous, n = 78): 5 no.
- Hematuria, grade 2 (6 mg continuous, n = 78): 0 no.
- Hematuria, grade ≥ 3 (6 mg continuous, n = 78): 1 no.
- Hyperphosphatemia, any grade (6 mg continuous, n = 78): 52 no.
- Hyperphosphatemia, grade 1 (6 mg continuous, n = 78): 44 no.
- Hyperphosphatemia, grade 2 (6 mg continuous, n = 78): 8 no.
- Hyperphosphatemia, grade ≥ 3 (6 mg continuous, n = 78): 0 no.
- Hypomagnesemia, any grade (6 mg continuous, n = 78): 6 no.
- Hypomagnesemia, grade 1 (6 mg continuous, n = 78): 6 no.
- Hypomagnesemia, grade 2 (6 mg continuous, n = 78): 0 no.
- Hypomagnesemia, grade ≥ 3 (6 mg continuous, n = 78): 0 no.
- Hyponatremia, any grade (6 mg continuous, n = 78): 7 no.
- Hyponatremia, grade 1 (6 mg continuous, n = 78): 2 no.
- Hyponatremia, grade 2 (6 mg continuous, n = 78): 0 no.
- Hyponatremia, grade ≥ 3 (6 mg continuous, n = 78): 5 no.
- Insomnia, any grade (6 mg continuous, n = 78): 8 no.
- Insomnia, grade 1 (6 mg continuous, n = 78): 4 no.
- Insomnia, grade 2 (6 mg continuous, n = 78): 2 no.
- Insomnia, grade ≥ 3 (6 mg continuous, n = 78): 2 no.
- Lacrimation increased, any grade (6 mg continuous, n = 78): 13 no.
- Lacrimation increased, grade 1 (6 mg continuous, n = 78): 10 no.
- Lacrimation increased, grade 2 (6 mg continuous, n = 78): 3 no.
- Lacrimation increased, grade ≥ 3 (6 mg continuous, n = 78): 0 no.
- Nail dystrophy, any grade (6 mg continuous, n = 78): 7 no.
- Nail dystrophy, grade 1 (6 mg continuous, n = 78): 6 no.
- Nail dystrophy, grade 2 (6 mg continuous, n = 78): 1 no.
- Nail dystrophy, grade ≥ 3 (6 mg continuous, n = 78): 0 no.
- Nausea, any grade (6 mg continuous, n = 78): 16 no.
- Nausea, grade 1 (6 mg continuous, n = 78): 11 no.
- Nausea, grade 2 (6 mg continuous, n = 78): 4 no.
- Nausea, grade ≥ 3 (6 mg continuous, n = 78): 1 no.
- Onycholysis, any grade (6 mg continuous, n = 78): 13 no.
- Onycholysis, grade 1 (6 mg continuous, n = 78): 2 no.
- Onycholysis, grade 2 (6 mg continuous, n = 78): 6 no.
- Onycholysis, grade ≥ 3 (6 mg continuous, n = 78): 5 no.
- Onychomadesis, any grade (6 mg continuous, n = 78): 8 no.
- Onychomadesis, grade 1 (6 mg continuous, n = 78): 2 no.
- Onychomadesis, grade 2 (6 mg continuous, n = 78): 6 no.
- Onychomadesis, grade ≥ 3 (6 mg continuous, n = 78): 0 no.
- Oropharyngeal pain, any grade (6 mg continuous, n = 78): 8 no.
- Oropharyngeal pain, grade 1 (6 mg continuous, n = 78): 5 no.
- Oropharyngeal pain, grade 2 (6 mg continuous, n = 78): 3 no.
- Oropharyngeal pain, grade ≥ 3 (6 mg continuous, n = 78): 0 no.
- Pain in extremity, any grade (6 mg continuous, n = 78): 9 no.
- Pain in extremity, grade 1 (6 mg continuous, n = 78): 2 no.
- Pain in extremity, grade 2 (6 mg continuous, n = 78): 6 no.
- Pain in extremity, grade ≥ 3 (6 mg continuous, n = 78): 1 no.
- Paronychia, any grade (6 mg continuous, n = 78): 12 no.
- Paronychia, grade 1 (6 mg continuous, n = 78): 2 no.
- Paronychia, grade 2 (6 mg continuous, n = 78): 10 no.
- Paronychia, grade ≥ 3 (6 mg continuous, n = 78): 0 no.
- Peripheral edema, any grade (6 mg continuous, n = 78): 6 no.
- Peripheral edema, grade 1 (6 mg continuous, n = 78): 2 no.
- Peripheral edema, grade 2 (6 mg continuous, n = 78): 3 no.
- Peripheral edema, grade ≥ 3 (6 mg continuous, n = 78): 1 no.
- Pyrexia, any grade (6 mg continuous, n = 78): 14 no.
- Pyrexia, grade 1 (6 mg continuous, n = 78): 8 no.
- Pyrexia, grade 2 (6 mg continuous, n = 78): 3 no.
- Pyrexia, grade ≥ 3 (6 mg continuous, n = 78): 3 no.
- Retinal detachment, any grade (6 mg continuous, n = 78): 8 no.
- Retinal detachment, grade 1 (6 mg continuous, n = 78): 5 no.
- Retinal detachment, grade 2 (6 mg continuous, n = 78): 3 no.
- Retinal detachment, grade ≥ 3 (6 mg continuous, n = 78): 0 no.
- Stomatitis, any grade (6 mg continuous, n = 78): 33 no.
- Stomatitis, grade 1 (6 mg continuous, n = 78): 13 no.
- Stomatitis, grade 2 (6 mg continuous, n = 78): 13 no.
- Stomatitis, grade ≥ 3 (6 mg continuous, n = 78): 7 no.
- Urinary tract infection, any grade (6 mg continuous, n = 78): 13 no.
- Urinary tract infection, grade 1 (6 mg continuous, n = 78): 0 no.
- Urinary tract infection, grade 2 (6 mg continuous, n = 78): 9 no.
- Urinary tract infection, grade ≥ 3 (6 mg continuous, n = 78): 4 no.
- Vision blurred, any grade (6 mg continuous, n = 78): 5 no.
- Vision blurred, grade 1 (6 mg continuous, n = 78): 3 no.
- Vision blurred, grade 2 (6 mg continuous, n = 78): 1 no.
- Vision blurred, grade ≥ 3 (6 mg continuous, n = 78): 1 no.
- Vomiting, any grade (6 mg continuous, n = 78): 11 no.
- Vomiting, grade 1 (6 mg continuous, n = 78): 9 no.
- Vomiting, grade 2 (6 mg continuous, n = 78): 2 no.
- Vomiting, grade ≥ 3 (6 mg continuous, n = 78): 0 no.
- Weight decreased, any grade (6 mg continuous, n = 78): 8 no.
- Weight decreased, grade 1 (6 mg continuous, n = 78): 4 no.
- Weight decreased, grade 2 (6 mg continuous, n = 78): 2 no.
- Weight decreased, grade ≥ 3 (6 mg continuous, n = 78): 2 no.
- Abdominal pain, any grade (8 mg continuous, n = 99): 8 no.
- Abdominal pain, grade 1 (8 mg continuous, n = 99): 5 no.
- Abdominal pain, grade 2 (8 mg continuous, n = 99): 2 no.
- Abdominal pain, grade ≥ 3 (8 mg continuous, n = 99): 1 no.
- Alanine aminotransferase increased, any grade (8 mg continuous, n = 99): 17 no.
- Alanine aminotransferase increased, grade 1 (8 mg continuous, n = 99): 13 no.
- Alanine aminotransferase increased, grade 2 (8 mg continuous, n = 99): 2 no.
- Alanine aminotransferase increased, grade ≥ 3 (8 mg continuous, n = 99): 2 no.
- Alopecia, any grade (8 mg continuous, n = 99): 29 no.
- Alopecia, grade 1 (8 mg continuous, n = 99): 23 no.
- Alopecia, grade 2 (8 mg continuous, n = 99): 6 no.
- Alopecia, grade ≥ 3 (8 mg continuous, n = 99): 0 no.
- Anemia, any grade (8 mg continuous, n = 99): 20 no.
- Anemia, grade 1 (8 mg continuous, n = 99): 9 no.
- Anemia, grade 2 (8 mg continuous, n = 99): 7 no.
- Anemia, grade ≥ 3 (8 mg continuous, n = 99): 4 no.
- Arthralgia, any grade (8 mg continuous, n = 99): 8 no.
- Arthralgia, grade 1 (8 mg continuous, n = 99): 5 no.
- Arthralgia, grade 2 (8 mg continuous, n = 99): 3 no.
- Arthralgia, grade ≥ 3 (8 mg continuous, n = 99): 0 no.
- Aspartate aminotransferase increased, any grade (8 mg continuous, n = 99): 10 no.
- Aspartate aminotransferase increased, grade 1 (8 mg continuous, n = 99): 8 no.
- Aspartate aminotransferase increased, grade 2 (8 mg continuous, n = 99): 2 no.
- Aspartate aminotransferase increased, grade ≥ 3 (8 mg continuous, n = 99): 0 no.
- Asthenia, any grade (8 mg continuous, n = 99): 20 no.
- Asthenia, grade 1 (8 mg continuous, n = 99): 2 no.
- Asthenia, grade 2 (8 mg continuous, n = 99): 11 no.
- Asthenia, grade ≥ 3 (8 mg continuous, n = 99): 7 no.
- Back pain, any grade (8 mg continuous, n = 99): 5 no.
- Back pain, grade 1 (8 mg continuous, n = 99): 4 no.
- Back pain, grade 2 (8 mg continuous, n = 99): 1 no.
- Back pain, grade ≥ 3 (8 mg continuous, n = 99): 0 no.
- Blood creatinine increased, any grade (8 mg continuous, n = 99): 10 no.
- Blood creatinine increased, grade 1 (8 mg continuous, n = 99): 5 no.
- Blood creatinine increased, grade 2 (8 mg continuous, n = 99): 5 no.
- Blood creatinine increased, grade ≥ 3 (8 mg continuous, n = 99): 0 no.
- Conjunctivitis, any grade (8 mg continuous, n = 99): 13 no.
- Conjunctivitis, grade 1 (8 mg continuous, n = 99): 6 no.
- Conjunctivitis, grade 2 (8 mg continuous, n = 99): 7 no.
- Conjunctivitis, grade ≥ 3 (8 mg continuous, n = 99): 0 no.
- Constipation, any grade (8 mg continuous, n = 99): 28 no.
- Constipation, grade 1 (8 mg continuous, n = 99): 19 no.
- Constipation, grade 2 (8 mg continuous, n = 99): 8 no.
